From a melting point compilation (Tetko et al.)

Row | SMILES | melting point
1 | Cc1ccc(OCCC(=O)O)c(Br)c1 | 119 to 121 °C
2 | O=C1CCCc2nc(-c3ccccc3F)sc21 | 153 to 155 °C
3 | Cc1cc(O)n2ncnc2c1 | 254 to 256 °C
4 | CC(Cl)C(=O)Nc1ccc(Cl)cc1 (centres undefined) | 100 to 102 °C
5 | N#CCc1ccc(C(=O)O)cc1 | 189 to 191 °C
6 | C1CCc2nnc(C3CCCNC3)n2CC1 (centres undefined) | 171 to 173 °C
7 | NS(=O)(=O)c1c(Cl)cccc1Cl | 176 to 178 °C
8 | CC(C)c1ccc(C2CC2C(=O)O)cc1 (centres undefined) | 67 to 69 °C
9 | CCOC(=O)C(=O)c1cc(F)ccc1OC | 49 to 51 °C
10 | Nc1cccc(Cl)c1-n1cncn1 | 122 to 124 °C
11 | Cn1ncc2c(=O)[nH]c(CCl)nc21 | 232 to 234 °C
12 | O=C(O)CCc1ccc([N+](=O)[O-])cc1[N+](=O)[O-] | 124 to 126 °C
13 | CC1CCC(Cn2c(N)cc(=O)[nH]c2=O)CC1 (centres undefined) | 239 to 241 °C
14 | CON(C)S(=O)(=O)c1ccc(Br)cc1 | 81 to 83 °C
15 | CCOC(=O)c1cc2ccc(Br)cc2[nH]1 | 187 to 189 °C
16 | ClCc1nc(-c2ccc3c(c2)OCO3)no1 | 50 to 52 °C
17 | N#Cc1ccc(F)cc1N=C=O | 36 to 38 °C
18 | Brc1ccc2[nH]c3c(c2c1)CNCC3 | 216 to 218 °C
19 | COC(=O)c1cc(OC)ccc1S(=O)(=O)Cl | 49 to 51 °C
20 | COC(=O)C=CN(C)C | 43 to 45 °C
21 | CCNC(=O)NCc1ccc(N)cc1 | 120 to 122 °C
22 | CCOc1cccc(C=O)n1 | 55 to 57 °C
23 | Cc1csc(C2(N)CCCC2)n1 | 59 to 61 °C

Row | SMILES | melting point
24 | Cc1cc(C)c2c(C(=O)O)cc(C3CC3)nc2c1 | 217 to 219 °C
25 | N#Cc1c(OCCCO)n[nH]c1N | 155 to 157 °C
26 | O=C(CCl)NCc1cccc(C(=O)NC2CC2)c1 | 137 to 139 °C
27 | O=C(CCl)NCc1ccco1 | 81 to 83 °C
28 | NC(=O)CNS(=O)(=O)c1cccc(C(=O)O)c1 | 259 to 261 °C
29 | Cc1cc(-c2nc(C)cs2)c(=O)[nH]n1 | 267 to 269 °C
30 | COCCCC(N)=NO | 84 to 86 °C
31 | O=C(O)CNS(=O)(=O)c1ccc(Cl)c(Cl)c1 | 127 to 129 °C
32 | CC(C)(C)OC(=O)N1CCc2ccc(N)cc2C1 | 93 to 95 °C
33 | Cc1n[nH]c(C)c1CC(C)C(=O)O (centres undefined) | 170 to 172 °C
34 | O=C(O)CC(=O)Nc1nccs1 | 181 to 183 °C
35 | CC(C)NC(=O)N(C)c1ccc(O)cc1 | 158 to 160 °C
36 | CS(=O)(=O)c1ccc(C(=O)O)o1 | 173 to 175 °C
37 | c1ccc2c(c1)CN1CCCC1CN2 (centres undefined) | 107 to 109 °C
38 | O=C(O)Cc1csc(NC(=O)NC2CC2)n1 | 188 to 190 °C
39 | CC(O)CNc1nc2ccccc2[nH]1 (centres undefined) | 186 to 188 °C
40 | O=S1(=O)CC(O)C(NCCO)C1 (centres undefined) | 115 to 117 °C
41 | O=S(=O)(Cc1ccccc1)N1CCNCC1 | 129 to 131 °C
42 | NNc1nccc2sccc12 | 191 to 193 °C
43 | Cn1ccc(C(=O)N2CCCC(C(=O)O)C2)cc1=O (centres undefined) | 208 to 210 °C
44 | CC(=O)CC(=O)Nc1ccc(C)c(Cl)c1 | 108 to 110 °C
45 | NNC(=O)NCCc1cccs1 | 90 to 92 °C
46 | CCOC(=O)/C(C#N)=C\Nc1ccc(Cl)cc1F | 154 to 156 °C

Row | SMILES | melting point
47 | CCCOc1ccc(CNC(=O)CCl)cc1 | 109 to 111 °C
48 | O=C(O)CNC(=O)Cn1cncn1 | 206 to 208 °C
49 | O=C(O)C1CCN(S(=O)(=O)N2CCCCC2)CC1 | 131 to 133 °C
50 | COc1ccc(-c2csc3ncnc(Cl)c23)cc1 | 163 to 167 °C
51 | CCOC(=O)C1CN(C(=O)OC(C)(C)C)CCN1 (centres undefined) | 55 to 57 °C
52 | CC(C)c1ccc(O)c(C(=O)O)c1 | 123 to 125 °C
53 | c1ccc(NC2=NCCCS2)cc1 | 124 to 126 °C
54 | Nc1cccc(-c2nnnn2C2CC2)c1 | 137 to 139 °C
55 | Nc1nc(=O)cn[nH]1 | 249 to 251 °C
56 | CC(CC(=O)O)NCCO (centres undefined) | 180 to 182 °C
57 | Cc1nc(Cl)nc(N(C)C)n1 | 81 to 83 °C
58 | Cc1c(C(=O)O)cnn1Cc1ccccc1 | 172 to 174 °C
59 | Nc1cnn(-c2ccc(C(F)(F)F)cc2)c1 | 159 to 161 °C
60 | CC(C(=O)O)C1CCOCC1 (centres undefined) | 39 to 41 °C
61 | Cn1nc(CCl)[nH]c1=O | 139 to 141 °C
62 | CCOC(=O)CN1CCN(S(=O)(=O)c2ccccc2)CC1 | 75 to 77 °C
63 | O=C(O)CCNc1ncc(C(F)(F)F)cc1Cl | 131 to 133 °C
64 | CC(CC(=O)c1cccc(Br)c1)C(=O)O (centres undefined) | 95 to 97 °C
65 | CC1CCCCC1(NC(=O)OC(C)(C)C)C(=O)O (centres undefined) | 174 to 176 °C
66 | Cc1ccc(NC(=O)CCl)cc1Cl | 73 to 75 °C
67 | Cc1sc2ccc(Cl)cc2c1S(=O)(=O)Cl | 148 to 150 °C
68 | O=C1c2ccccc2C(=O)N1CC1(CBr)CCCC1 | 68 to 70 °C
69 | N#Cc1cccc(C(F)(F)F)n1 | 36 to 38 °C

More lines, now with the values ahead:

Row | melting point | SMILES
70 | 64 to 66 °C | COCc1cccc(C(=O)O)c1
71 | 78 to 80 °C | O=Cc1cc(Br)c(OCc2ccccc2)c(Br)c1
72 | 167 to 169 °C | O=C(O)c1ccc(Oc2ccc(Cl)cc2)c(Cl)c1
73 | 79 to 81 °C | O=C(O)C1CCCN1S(=O)(=O)c1ccccc1 (centres undefined)
74 | 119 to 121 °C | Cc1nc2ccccc2n1C(C(=O)O)C(C)C (centres undefined)
75 | 99 to 101 °C | CC(C)(C)c1cc(N)n(-c2cccc(Cl)c2)n1
76 | 219 to 221 °C | COCCn1c(C)c(C)c2cc(C(=O)O)ccc21
77 | 214 to 216 °C | Cn1nc(C(=O)O)cc1-c1ccc2c(c1)OCO2
78 | 211 to 213 °C | Cc1c[nH]c(=O)n1-c1ccccc1F
79 | 206 to 208 °C | O=C(O)c1cn(Cc2cccnc2)nn1
80 | 89 to 91 °C | O=C(O)Cc1cc2ccccc2o1
81 | 188 to 190 °C | Cc1ccc(-c2nnn(CC(=O)O)n2)cc1
82 | 51 to 53 °C | Nc1cccnc1OCc1ccccc1
83 | 244 to 246 °C | Cn1nc(C(=O)O)c(=O)c2ccccc21
84 | 92 to 94 °C | CCOC(O)=C1Nc2ccccc2C1=O
85 | 193 to 195 °C | O=C(O)c1cc(-c2cccs2)n(-c2ccccc2)n1
86 | 139 to 141 °C | Cc1oc(C(=O)O)cc1COc1ccccc1
87 | 203 to 205 °C | O=C(O)c1cc2ccccc2cc1NS(=O)(=O)c1ccc(F)cc1

Row | melting point | SMILES
88 | 130 to 132 °C | NNC(=O)c1cccc2ncccc12
89 | 105 to 107 °C | O=C(O)CC(O)(c1ccccc1)C1CC1 (centres undefined)
90 | 97 to 99 °C | N#Cc1ccc(Oc2ccccc2O)c(F)c1
91 | 276 to 278 °C | O=C(O)c1cnc2c(Br)cccc2c1O
92 | 144 to 146 °C | O=C(O)c1csc(-c2cccc3ccccc23)n1
93 | 135 to 137 °C | COc1cccc(Nc2nnc(SCC(=O)O)s2)c1
94 | 161 to 163 °C | O=C(CCl)NC(=O)Nc1ccccc1
95 | 177 to 179 °C | CC(C)(C)OC(=O)NC(C(N)=NO)c1ccccc1 (centres undefined)
96 | 200 to 202 °C | O=C(O)CN(CC(=O)O)Cc1ccccc1
97 | 136 to 138 °C | O=C(O)c1ccc(CS)c(F)c1
98 | 77 to 79 °C | Cc1cc(CO)c(C)n1-c1ccccc1
99 | 101 to 103 °C | Nc1ccc(CN2CCN(c3ccccn3)CC2)cc1
100 | 86 to 88 °C | c1ccc(-c2cncc(-c3ccccc3)n2)cc1
101 | 243 to 245 °C | NC(=S)/C(=C/c1ccccc1O)C(=O)O
102 | 168 to 170 °C | C/C(=N\O)c1ccc(-c2cccc(Br)c2)s1
103 | 184 to 186 °C | Cc1cc(C)n(-c2ccc(C(=O)O)cc2F)n1
104 | 94 to 96 °C | CN1CCN(C(N)=O)C(c2ccccc2)C1 (centres undefined)
